This note sets out measurements from PMC10938439, “C-3 Steroidal Hemiesters as Inhibitors of 17β-Hydroxysteroid Dehydrogenase Type 10” (ACS Omega, 2024).

The structures appear in SMILES notation. Values joined by “and” are separate entries in the source; they are usually repeats but may differ in a detail not shown here. Identical values can stand only once.

Series [1] addresses T1, 17β-HSD10 (Homo sapiens, UniProt Q99714).
T1 construct: inferred from Ni-NTA purification with imidazole elution; made in house; host or cells: E. coli BL21 (DE3)
T1 sequence (Q99714 1-261): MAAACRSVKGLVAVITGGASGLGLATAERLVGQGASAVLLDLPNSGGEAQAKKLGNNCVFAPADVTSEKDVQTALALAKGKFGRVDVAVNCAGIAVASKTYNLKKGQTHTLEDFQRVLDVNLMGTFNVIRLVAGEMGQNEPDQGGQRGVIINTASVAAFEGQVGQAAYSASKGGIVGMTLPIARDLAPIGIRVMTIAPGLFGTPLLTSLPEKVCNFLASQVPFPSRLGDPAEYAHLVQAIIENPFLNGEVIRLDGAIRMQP
As to the kind of experiment: Inhibition of 17β-estradiol to estrone transformation by purified recombinant 17β-HSD10 (NADH fluorescence). To be noted: purified recombinant 17β-HSD10, 17β-estradiol as substrate; means ± SEM (n = 4). The series is classed as biochemical. The protocol:
As standards, we used the known inhibitor AG18051 as the positive control and the published steroidal compounds,[18] namely, pregnenolone, testosterone, dihydrotestosterone, androsterone, epiandrosterone, and dehydroepiandrosterone.
17β-HSD10 was performed as described previously.[11] Briefly, the autoinduction and overexpression were performed at 25 °C for 18 h in the E. coli BL21 (DE3) strain. The bacterial pellet was resuspended in lysis buffer that consisted of sodium phosphate buffer ([…]), NaCl (150 mM), and imidazole (10 mM, pH 8.0) with 1 mg/mL lysozyme and benzonase (150 U/mL). cOmplete EDTA-free protease inhibitor cocktail was incubated for 20 min on ice and then sonicated (12 × 10 s pulses with 30 s pauses). The supernatant was applied to the Ni-NTA agarose resin after centrifugation (16 000g, 10 min, 4 °C). Then, the solution was incubated on ice for 1 h with gentle stirring.
The standard steroids were screened at 1 and 10 μM concentrations, and the tested compounds and standard AG18051 were screened at 10 μM concentration. For compounds with at least 50% inhibition of 17β-HSD10, the IC50 values were determined.
Steroid stock solutions (5 mM) were further diluted with DMSO to the working concentrations. DMSO was used as a vehicle control, and AG18051 was used as a control inhibitor. The enzyme activity was determined fluorometrically at 37 °C in the activity assay buffer [100 mM potassium phosphate buffer (pH 8.0)]. The general reaction mixture (200 μL per well) consisted of 17β-estradiol (25 μM, DMSO), NAD+ (500 μM, deionized water), recombinant 17β-HSD10 (45 nM), and different concentrations of inhibitor (2.2% (v/v) final concentration of DMSO as solvent). Before the addition of substrate, the reaction mixture of enzyme, cofactor, and inhibitor in the assay buffer was preincubated for 5 min at 37 °C. The increase of fluorescence (Ex/Em = 340/460 nm) due to the formation of NADH was monitored for 20 min (30 s intervals). For IC50 value determination, dose–response inhibition at 11 different concentrations of inhibitor (0.6–33.75 μM) was determined and the data were analyzed by GraphPad Prism 8.4.3 (GraphPad Software Inc.). All measurements were performed in a tetraplicate.

Series [2] concerns HEK-293 cells. As to the kind of experiment: CellTiter-Glo luminescent cell viability assay. The format is cell-based. Particulars: HEK-293, 1, 10 and 20 μM. As to the method: Finally, because the strongest inhibitor identified in vitro compound 23 has a favorable permeability coefficient, its potency to inhibit 17β-HSD10 also at the cellular level was determined. First, it was necessary to exclude the possibility that higher concentrations of compound 23 could be unfavorable to cells. The effects of compound 23 on the cellular viability and cytotoxicity of this compound (1, 10, and 20 μM) were determined using CellTiter-Glo Viability Assay and CellTox Green Assay, respectively, on HEK-293 cell line.
HEK-293 cells in DMEM (Capricorn) were supplemented with fetal bovine serum (10%, Gibco), L-glutamine (2 mM, Lonza), and nonessential amino acid additives (Gibco). Cells were maintained at 37 °C under a humidified atmosphere of 5% CO2. Compound 23 was tested on the HEK-293 cell line on cell viability using CellTox Green (G8741, Promega) and the CellTiter-Glo 2.0 kit (G9241, Promega), respectively, to establish their cytotoxic effect. Using a Tecan Spark 10 M instrument, the measurements were performed as end point methods in the multiplex. For multiplex measurement, 7500 cells were seeded per well in 50 μL of culture media and cultured for 24 h before the addition of selected compounds. […] Next, the CellTiter-Glo Luminescent Cell Viability Assay with an integration time of 500 ms was determined.

In the case of `C[C@@]12CCC[C@H]1[C@@H]1CC=C3C[C@@H](OC(=O)CCCCC(=O)O)CC[C@]3(C)[C@H]1CC2` [Compound 23, Androst-5-en-3β-yl Hemiadipate], the IC50 (commonly the point on the concentration scale where inhibition reaches its midpoint) in series [1] is ~5.59 µM and 5.59 µM. The “cellular viability (CellTiter-Glo)” value in series [2] is “does not influence HEK-293 viability”.
